According to publication PMC12242638, “Drug Repurposing by Virtual Screening: Identification of New Already Approved ROCK Inhibitors as Promising Drugs to Target Neurodegeneration” (ACS Omega, 2025):
pIC50: −log10 of the molar value. “Also recorded” adds a separate entry of the source.

How the values were obtained:
[1] = biological target: hROCK1 (Homo sapiens, UniProt Q13464); assay: HotSpot Kinase Assay, ROCK1 inhibition (Reaction Biology Corp.); type: biochemical
Description: (§1) The HotSpot Kinase Assay was used for compound screening on protein kinases, as already reported. The assay was performed in a base reaction buffer containing 20 mM Hepes (pH 7.5), 10 mM MgCl2, 1 mM EGTA, 0.01% Brij-35, 0.02 mg/mL BSA, 0.1 mM Na3VO4, 2 mM DTT, and 1% DMSO, with the required cofactors added individually to each kinase reaction. The substrate was prepared in freshly made base reaction buffer, and cofactors were added accordingly. The indicated kinase was then delivered into the substrate solution and gently mixed. Test compounds, dissolved in 100% DMSO, were added to the kinase reaction mixture using acoustic technology (Echo550; nanoliter range), followed by incubation for 20 min at room temperature. The reaction was initiated by adding ^33P-ATP (1 μM) and incubating for 2 h at room temperature. Kinase activity was detected using the P81 filter-binding method.

[2] = biological target: hROCK2 (Homo sapiens, UniProt O75116); assay: HotSpot Kinase Assay, ROCK2 inhibition (Reaction Biology Corp.); type: biochemical
Description: as §1

[3] = previously reported; cited from earlier work
[4] = tested on: ROCK1; conditions: introduction, literature values; read-out: ROCK1 IC50 of approved ROCK inhibitors; cited from earlier work
[5] = tested on: ROCK2; conditions: introduction, literature values; read-out: ROCK2 IC50 of approved ROCK inhibitors; cited from earlier work
[6] = tested on: mouse hippocampal neurons; conditions: primary cultures of mouse hippocampal neurons; cited from earlier work
[7] = biological target: PKCα (Homo sapiens, UniProt P17252); assay: HotSpot Kinase Assay, AGC kinase selectivity, PKCα; type: biochemical
Description: as §1

[8] = tested on: C6 cells; assay: MTT cell viability, C6 glioma cell line; type: cell-based; conditions: 0.1 to 5 μM, 24 h
Description: (§2) Prior to the experiments, SH-SY5Y cells were cultured in DMEM/F12 plus 10% FBS (Fetal bovine serum, Invitrogene). […] The cells were incubated for 24 h under these conditions.
(§3) C6 and SH-SY5Y cells were plated in a 96-well plate with 1 × 10^4 cells per well. Cell morphology was observed using an EVOS phase-contrast microscope (Invitrogen, ThermoFisher Scientific, USA), and viability was evaluated using a 3-[4,5-dimethylthiazol-2-yl]-2,5-diphenyltetrazolium bromide (MTT) reduction assay. After 24 h of treatment, cells were incubated with 0.5 mg/mL MTT dye for 3 h at 37 °C and 5% CO2. This assay evaluates the labeling activity of mitochondrial dehydrogenases such as succinate dehydrogenase by reducing MTT (yellow) to a purple formazan salt. The culture media were removed, and the crystals were dissolved in 150 μL DMSO. The intensity of formazan was measured using a GloMax spectrophotometer (Promega) at a wavelength of 560 nm.

[9] = tested on: SH-SY5Y cells; assay: MTT cell viability, SH-SY5Y cell line; type: cell-based; conditions: 0.1 to 5 μM, 24 h
Description: as §2, §3

[10] = tested on: murine primary astrocytes; assay: GFAP and C3 immunocytochemistry in LPS-treated primary cortical astrocytes; type: cell-based, C57BL/6 mice (Mus musculus); conditions: 24 h; for C3 immunostaining in LPS-treated astrocyte cultures: 1 μM ruxolitinib, LPS 10 μg/mL
Description: Primary cortical astrocyte cultures were prepared from brains of P0–3 C57BL/6 mice as described by Matias et al. The meninges of the brain were removed to cortex desiccation in Gey’s buffer, and the cerebral cortex was maintained in DMEM/F12, supplemented with 10% FBS. […] After 24 h, cultures were washed and fixed.
Astrocyte cultures were fixed with 4% PFA in phosphate-buffered saline (PBS, pH 7.4) for 15 min, and nonspecific sites were blocked with 3% BSA, 5% normal goat serum, and 0.2% Triton X-100 diluted in PBS for 1 h, before incubation with the rabbit anti-GFAP (1:1,000, DAKO Cytomation, Cat. Z0334) and the rat anti-C3 (1:100, Abcam, Cat. ab11862) at 4 °C overnight. Subsequently, the cells were thoroughly washed with PBS and incubated with secondary antibodies at room temperature for 2 h.

hROCK1, sequence (Q13464 whole entry): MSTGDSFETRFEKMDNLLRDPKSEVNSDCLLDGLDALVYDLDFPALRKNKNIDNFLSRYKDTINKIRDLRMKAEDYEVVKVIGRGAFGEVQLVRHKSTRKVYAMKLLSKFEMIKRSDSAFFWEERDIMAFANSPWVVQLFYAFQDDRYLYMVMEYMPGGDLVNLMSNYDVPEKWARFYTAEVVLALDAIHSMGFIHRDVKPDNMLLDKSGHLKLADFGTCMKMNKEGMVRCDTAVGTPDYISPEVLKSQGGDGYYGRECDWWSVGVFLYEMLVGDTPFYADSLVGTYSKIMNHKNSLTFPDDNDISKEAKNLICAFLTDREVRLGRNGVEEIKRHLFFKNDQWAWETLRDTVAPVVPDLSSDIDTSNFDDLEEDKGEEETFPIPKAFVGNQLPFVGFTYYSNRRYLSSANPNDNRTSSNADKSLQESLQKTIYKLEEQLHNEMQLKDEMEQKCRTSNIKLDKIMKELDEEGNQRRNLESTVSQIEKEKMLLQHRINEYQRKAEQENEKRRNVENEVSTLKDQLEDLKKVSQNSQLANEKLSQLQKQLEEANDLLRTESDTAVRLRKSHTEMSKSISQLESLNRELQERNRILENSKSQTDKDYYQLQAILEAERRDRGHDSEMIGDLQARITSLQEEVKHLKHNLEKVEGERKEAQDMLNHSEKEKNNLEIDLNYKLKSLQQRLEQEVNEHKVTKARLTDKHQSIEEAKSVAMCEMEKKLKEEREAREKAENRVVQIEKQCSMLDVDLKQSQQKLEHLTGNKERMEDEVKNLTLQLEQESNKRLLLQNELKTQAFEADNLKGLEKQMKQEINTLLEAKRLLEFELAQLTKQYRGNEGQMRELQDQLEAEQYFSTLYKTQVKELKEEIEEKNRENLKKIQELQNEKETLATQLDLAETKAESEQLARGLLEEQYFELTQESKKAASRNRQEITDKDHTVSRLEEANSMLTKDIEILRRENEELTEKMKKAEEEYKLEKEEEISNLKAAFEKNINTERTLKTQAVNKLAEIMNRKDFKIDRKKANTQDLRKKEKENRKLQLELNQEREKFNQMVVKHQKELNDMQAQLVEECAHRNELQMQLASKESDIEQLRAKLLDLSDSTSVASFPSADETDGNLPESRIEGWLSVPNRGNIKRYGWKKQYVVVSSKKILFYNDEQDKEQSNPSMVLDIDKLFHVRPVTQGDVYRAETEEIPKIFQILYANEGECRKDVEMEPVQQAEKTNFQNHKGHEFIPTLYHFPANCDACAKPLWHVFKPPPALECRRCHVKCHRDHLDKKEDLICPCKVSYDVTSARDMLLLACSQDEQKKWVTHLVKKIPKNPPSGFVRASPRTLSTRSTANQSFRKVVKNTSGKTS
hROCK2, sequence (O75116 whole entry): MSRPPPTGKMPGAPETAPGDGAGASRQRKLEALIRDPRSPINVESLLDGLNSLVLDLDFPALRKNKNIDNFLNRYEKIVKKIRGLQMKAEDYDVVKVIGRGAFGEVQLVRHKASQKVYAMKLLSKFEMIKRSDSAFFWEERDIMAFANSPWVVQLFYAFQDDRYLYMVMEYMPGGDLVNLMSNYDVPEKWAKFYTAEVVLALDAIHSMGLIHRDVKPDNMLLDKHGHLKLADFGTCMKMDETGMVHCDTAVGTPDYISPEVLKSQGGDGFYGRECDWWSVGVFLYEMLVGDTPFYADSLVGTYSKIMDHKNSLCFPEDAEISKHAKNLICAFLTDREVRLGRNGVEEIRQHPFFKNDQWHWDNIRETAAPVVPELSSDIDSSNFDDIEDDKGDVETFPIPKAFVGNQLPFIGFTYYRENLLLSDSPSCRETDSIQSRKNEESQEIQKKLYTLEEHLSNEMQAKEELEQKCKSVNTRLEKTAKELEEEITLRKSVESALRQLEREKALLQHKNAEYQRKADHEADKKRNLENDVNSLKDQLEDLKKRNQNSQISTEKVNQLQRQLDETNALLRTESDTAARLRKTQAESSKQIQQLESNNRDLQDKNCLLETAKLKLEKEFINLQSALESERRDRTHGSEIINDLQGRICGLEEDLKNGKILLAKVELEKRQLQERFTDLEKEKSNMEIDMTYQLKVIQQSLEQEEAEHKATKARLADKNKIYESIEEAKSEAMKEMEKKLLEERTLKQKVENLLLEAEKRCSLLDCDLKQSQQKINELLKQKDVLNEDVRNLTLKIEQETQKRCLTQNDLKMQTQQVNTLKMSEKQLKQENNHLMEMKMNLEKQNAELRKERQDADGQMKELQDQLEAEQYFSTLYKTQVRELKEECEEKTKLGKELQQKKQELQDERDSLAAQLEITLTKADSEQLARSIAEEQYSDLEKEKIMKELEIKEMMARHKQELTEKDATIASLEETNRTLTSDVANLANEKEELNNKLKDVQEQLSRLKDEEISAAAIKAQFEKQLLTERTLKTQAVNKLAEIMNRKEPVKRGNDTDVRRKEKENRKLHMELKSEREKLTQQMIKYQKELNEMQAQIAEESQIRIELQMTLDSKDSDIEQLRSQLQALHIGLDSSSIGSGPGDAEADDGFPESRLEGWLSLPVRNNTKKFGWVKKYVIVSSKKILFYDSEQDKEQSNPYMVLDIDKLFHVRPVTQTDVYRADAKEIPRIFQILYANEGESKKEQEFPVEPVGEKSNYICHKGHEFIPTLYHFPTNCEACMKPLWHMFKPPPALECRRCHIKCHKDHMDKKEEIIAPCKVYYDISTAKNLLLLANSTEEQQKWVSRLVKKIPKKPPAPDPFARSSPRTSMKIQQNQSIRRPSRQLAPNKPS

Compound | pIC50 [1] | pIC50 [2] | pIC50 [4] | pIC50 [5] | other results
CCS(=O)(=O)N1CC(CC#N)(n2cc(-c3ncnc4[nH]ccc34)cn2)C1 [Baricitinib (37), baricitinib] | 7.72 | 7.96 | – | – | crossing of the blood-brain barrier (BBB) [3]: cross the blood-brain barrier (BBB)
O=C1CCc2cc(OCCCCc3nnnn3C3CCCCC3)ccc2N1 [Cilostazole] | – | – | – | – | ROCK1 % (30 µM), printed under IC50 ROCK1 head ([1]; 30 µM): 3%; ROCK2 % (30 µM), printed under IC50 ROCK2 head ([2]; 30 µM): 8%
O=S(=O)(c1cccc2cnccc12)N1CCCNCC1 [Fasudil (2), Fasudil] | – | – | […] | – | levels of Tau phosphorylation [6]: decreased the levels of Tau phosphorylation
O=C(CCNNC(=O)c1ccncc1)NCc1ccccc1 [Nialamide (40), nialamide] | 4.73 | 4.53 | – | – | –
C[C@H]1CNCCCN1S(=O)(=O)c1cccc2cncc(F)c12 [Ripasudil (3), Ripasudil] | – | – | 7.29 | 7.72 | –
N#CC[C@H](C1CCCC1)n1cc(-c2ncnc3[nH]ccc23)cn1 [Ruxolitinib (36), ruxolitinib] | – | – | – | – | pIC50 [7]: 5.90; cell viability (MTT), C6 glioma (astrocytic cell line) ([8]; listed as ruxolitinib): No significant impact on the viability; cell viability (MTT), C6 glioma (astrocytic cell line) ([8]; listed as ruxolitinib (36)): did not adversely affect the viability; also recorded: does not affect the viability; cell viability (MTT), SH-SY5Y (neuronal cell line) ([9]; listed as ruxolitinib): No significant impact on the viability; cell viability (MTT), SH-SY5Y (neuronal cell line) ([9]; listed as ruxolitinib (36)): did not adversely affect the viability; also recorded: does not affect the viability; C3 immunostaining in LPS-treated astrocyte cultures ([10]; listed as ruxolitinib): decreased C3 immunostaining; also recorded: reversed this event; C3 immunostaining in LPS-treated astrocyte cultures ([10]; listed as ruxolitinib (36)): reduce C3 immunolabeling; GFAP intermediate filament organization and process extension of astrocytes ([10]; 1 μM): did not impact intermediate filament organization and process extension; crossing of the blood-brain barrier (BBB) [3]: cross the blood-brain barrier (BBB)
COc1cc2nccc(Oc3ccc(NC(=O)Nc4cc(C)on4)c(Cl)c3)c2cc1OC [Tivozanib (39), tivozanib] | 4.89 | 6.07 | – | – | selectivity for ROCK2 over ROCK1 ([2]; from the IC50 values): 15 fold
Cc1cc(Nc2ncnc3ccc(NC4=NC(C)(C)CO4)cc23)ccc1Oc1ccn2ncnc2c1 [Tucatinib (41), tucatinib] | 4.29 | 4.73 | – | – | –
